The source of these data is PubChem BioAssay (NCI).

Values joined by “and” are separate entries in the source; they are usually repeats but may differ in a detail not shown here. Identical values can stand only once.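 1) Cells in 96-well plates. 2) Compound, 48 h, 5 concentrations. 3) Linear interpolation between surrounding doses. 4) Unreached endpoint = highest concentration. Here, GI50 denotes the concentration required for 50% inhibition of growth. TGI is the concentration that stops growth completely.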

Assay in all cases: NCI tumour cell line growth inhibition, 48 h
The subject of test [1] is CCRF-CEM leukemia.
The subject of test [2] is COLO 205 colon.
Test [3] deals with HT29 colon.
The test system of test [4] is MDA-MB-231 breast.
The subject of test [5] is OVCAR-3 ovarian.
In test [6] the test system is SF-295 CNS.
Test [7] concerns SF-539 CNS.
In test [8] the test system is SK-MEL-2 melanoma.
In test [9] the test system is SNB-75 CNS.
Test [10] has as its system U251 CNS.

For `CCN(CC)CCCC(CCl)Nc1ccnc2cc(Cl)ccc12` (stereo unspecified), the GI50 was 13.7 µM and 16.9 µM in [1]; 29.5 µM and 15.1 µM in test [2]; 14.7 µM and 6.38 µM in test [3]; 16.3 µM and 5.11 µM in test [4]; 10.9 µM and 6.23 µM in test [5]; 13.1 µM and 12.6 µM in [6]. In addition, the GI50 in [7] was 10.7 µM and 11.4 µM; in test [8] it was 25.4 µM and 35 µM; in test [9] it was 26.1 µM and 29.5 µM; in test [10], 23.4 µM and > 50 µM. In addition, the TGI was 39.7 µM and 51.5 µM in test [1]; > 100 µM in [2]; > 100 µM in test [3]; 79.5 µM and > 43.1 µM in test [4]; 34.7 µM and 28 µM in [5]; 26.3 µM and 28.6 µM in [6]. The TGI is 24.8 µM and 27.5 µM in test [7]; 57.5 µM and > 100 µM in test [8]; 59.2 µM and > 73.6 µM in [9]; 69.7 µM and > 100 µM in test [10].

With `CCN1C(=O)/C(=C/c2c(Cl)[nH]c3cc(C)c(OC)cc23)c2ccccc21`, the GI50 in test [1] is 1.76 µM; in [2], 2.77 µM; in [3], 1.55 µM; in [4] it was 2.43 µM; in [5], 2.6 µM; in test [6] it was 1.49 µM. Also, the GI50 in test [7] is 0.251 µM; in [8], 0.708 µM; in test [9] it was 13.8 µM; in test [10], 4.53 µM. For the same molecule, the TGI was 5.22 µM in test [1]; 15.4 µM in [2]; > 100 µM in [3]; 54.1 µM in test [4]; 8.37 µM in test [5]; 40.6 µM in test [6]. The TGI in test [7] was 0.52 µM; in test [8], > 100 µM; in [9] it was > 100 µM; in test [10] it was 20.2 µM.

As to `Cc1cn(-c2cc(NC(=O)c3cccc(C#Cc4cccc5[nH]nc(N)c45)c3)cc(C(F)(F)F)c2)cn1`, the GI50 in [1] was 4.88 µM; in test [2], 2.45 µM; in test [3], 2.55 µM; in test [4] it was 2.35 µM; in test [5], 11.1 µM; in test [6] it was 4.26 µM. In addition, the GI50 in test [7] is 1.3 µM; in test [8], 2.27 µM; in test [9], 2.19 µM; in [10], 5.15 µM. The TGI in [1] was > 100 µM; in [2], 15.8 µM; in test [3] it was 17.7 µM; in [4], 16.7 µM; in test [5], 83.1 µM; in [6], 28.4 µM. In addition, the TGI in test [7] is 14.3 µM; in [8], 8.14 µM; in [9] it was 9.02 µM; in test [10], 20.3 µM.

As to `CN(C)CCOc1ccc([N+](=O)[O-])c2cccnc12`, the TGI in test [1], in test [2], in test [3], in [4], in test [5] and in [6] was > 100 µM in each case. For the same molecule, the TGI in [7], in [8], in [9] and in [10] was > 100 µM throughout.

For `NC(CSC(c1ccccc1)(c1ccccc1)c1ccccc1)C(=O)NCC(=O)O` (stereo unspecified), the GI50 in [1] was 3.68 µM; in test [2], 3.39 µM; in [3], 22 µM; in test [4], 2.65 µM; in test [5], 5.15 µM; in [6], 6.1 µM. The GI50 was 2.54 µM in [7], 2.71 µM in test [8], 2.95 µM in test [9] and 3.64 µM in test [10]. In addition, the TGI in [1] is > 100 µM; in [2], > 100 µM; in test [3], 97.6 µM; in test [4] it was 9.42 µM; in [5], 37.2 µM; in test [6] it was > 100 µM. Further, the TGI in test [7] was determined as 7.46 µM; in test [8] it was 7.93 µM; in test [9] it was 27.7 µM; in test [10], 63.8 µM.

For `CCN1C(=O)c2ccc3c4c(ccc(c24)C1=O)C(=O)N(CCCNCc1ccccc1OC)C3=O`, the GI50 in test [1] is 0.793 µM; in test [2], 0.201 µM; in test [3] it was 0.404 µM; in test [4], 0.791 µM; in test [5], 0.335 µM; in [6] it was 0.377 µM. Moreover, the GI50 is 1.16 µM in [7], 1.55 µM in [8], 1.57 µM in [9] and 1.25 µM in test [10]. Moreover, the TGI in test [1] came out at 9.41 µM; in test [2], 0.382 µM; in test [3], 3.67 µM; in test [4], 9.31 µM; in [5], 1.04 µM; in test [6], 1.37 µM. The TGI in [7] came out at 2.47 µM; in test [8] it was 3.48 µM; in test [9], 3.01 µM; in test [10] it was 3.32 µM.

Take `COc1ccc2c(c1)NC1=C(C(=O)OC1)C2c1cc(OC)c(OC)c(OC)c1` (stereo unspecified): the GI50 in test [1], in [2], in test [3], in test [4], in test [5] and in test [6] was < 0.01 µM throughout. For the same molecule, the GI50 in [7], in test [8], in test [9] and in [10] was < 0.01 µM each time. The TGI in [1] is > 100 µM; in test [2] it was < 0.01 µM; in [3] it was > 100 µM; in test [4], < 0.01 µM; in [5], < 0.01 µM; in test [6], > 54.5 µM. Also, the TGI in test [7] is 18.6 µM; in test [8], > 100 µM; in test [9] it was 40 µM; in test [10], > 100 µM.

In the case of `N[C@H](C(=O)O)[C@@H]1CC(Cl)=NO1`, the GI50 in test [1] was 5.76 µM; in test [2] it was 43.6 µM; in [3] it was 7.44 µM; in test [5] it was 31.4 µM; in [6], 7.59 µM and 2.63 µM; in test [7], 25.4 µM. In addition, the GI50 in test [8] is 27.1 µM; in test [10], 9.73 µM. Moreover, the TGI in [1] is 700 µM; in [2] it was > 1000 µM; in [3], > 811 µM; in test [4], > 1000 µM; in test [5], 469 µM; in test [6], > 908 µM. The TGI was 916 µM in [7], 355 µM in test [8], > 1000 µM in [9] and > 1000 µM in [10].

With `COCCOC(=O)C1=C(O)c2ccccc2S(=O)(=O)N1C`, the TGI in test [1], in test [2], in test [3], in test [4], in test [5] and in test [6] was > 100 µM throughout. The TGI in test [7] is > 100 µM; in [8], > 100 µM; in [9], 87.6 µM; in test [10] it was > 100 µM.

Turning to `C=CC(=O)N1CCC(Oc2cc3c(Nc4ccc(Cl)c(Cl)c4F)ncnc3cc2OC)CC1`, the GI50 in test [1] was 2.33 µM and 3.37 µM; in test [2], 4.26 µM and 3.52 µM; in test [3], 1.71 µM and 1.52 µM; in test [4], 3.79 µM and 1.65 µM; in test [5], 2.63 µM and 1 µM; in [6], 3.78 µM and 2.21 µM. Besides, the GI50 in test [7] was 1.57 µM and 1.78 µM; in test [8] it was 6.15 µM and 1.95 µM; in test [9], 1.07 µM and 0.48 µM; in [10], 7.13 µM and 3.33 µM. For the same molecule, the TGI in [1] is 55.9 µM and > 10 µM; in [2], 17.4 µM and > 10 µM; in test [3] it was 13.7 µM and > 9.34 µM; in [4], 23.8 µM and > 9.63 µM; in [5], 16.5 µM and > 8.17 µM; in test [6] it was 17.3 µM and > 10 µM. Moreover, the TGI in test [7] was 10 µM and 8.4 µM; in test [8], 27 µM and 6.41 µM; in test [9], 13.7 µM and 4.4 µM; in test [10] it was 27 µM and > 10 µM.

Take `COc1cc(Nc2ncccc2C(=O)Nc2nc3ccc(F)cc3s2)cc(OC)c1OC`: the GI50 is 3.26 µM in [1]; 3.04 µM in [2]; 5.15 µM in [3]; 4.61 µM in test [4]; 2.77 µM in test [5]; 2.55 µM in test [6]. Also, the GI50 in test [7] was 3.84 µM; in [8], 2.34 µM; in test [9], 4.48 µM; in test [10] it was 3.01 µM. Also, the TGI was > 100 µM in test [1]; > 100 µM in [2]; > 100 µM in test [3]; > 100 µM in [4]; 33 µM in test [5]; > 100 µM in test [6]. Further, the TGI in [7] is > 100 µM; in test [8], 8.04 µM; in [9], > 100 µM; in test [10], > 100 µM.

As for `CCCCCCCCCCCCCCCCCCOC[C@H](COP(=O)(O)O[C@H]1[C@H](O)[C@@H](O)[C@H](O)C[C@H]1O)OC`, the TGI was 12.7 µM and 46 µM in [1]; > 100 µM and 24.2 µM in [2]; > 100 µM and 26.2 µM in test [3]; > 100 µM and 27.6 µM in test [4]; > 100 µM and 34.9 µM in test [5]; > 100 µM and 30.8 µM in test [6]. The TGI in test [7] is > 100 µM and 31 µM; in [8], > 100 µM and 30.2 µM; in test [9], 59.6 µM and 27.9 µM; in test [10], > 100 µM and 19.2 µM. The GI50 was 26.6 µM and 11 µM in [2]; 58.7 µM and 13.1 µM in [3]; > 100 µM and 13.6 µM in [4]; > 100 µM and 16.9 µM in test [5]; 98.4 µM and 15.3 µM in test [6]; > 100 µM and 16.2 µM in test [7]. Besides, the GI50 was > 100 µM and 16.3 µM in [8]; 33 µM and 5.89 µM in [10].
